Experimental data from patent US6737383B1, “Herbicidal oxadiazolidines” (priority 1999, dated 2004).

Experiments:
[1] = system: common pursiane; assay: Test D common purslane; assay type: in vivo, Portulaca oleracea
Outline: (§1)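 Herbicide screen in the greenhouse. A non-phytotoxic solvent mixture with surfactant carried the test chemical; in pre-emergence tests it went onto the soil of pots seeded no more than a day earlier. Injury was scored by eye 14 to 21 days after application, 0 to 100.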

[2] = system: common ragweed; assay: Test D common ragweed; assay type: in vivo, Ambrosia elatior; settings: Preemergence, 0 to 100 scale
Text: (§2) Seeds, tubers, or plant parts of Alexandergrass (Brachiaria plantaginea), bermuda-grass (Cynodon dactylon), common pursiane (Portulaca oleracea), common ragweed (Ambrosia elatior), common groundsel (Senecio vulgaris), dallisgrass (Paspalum dilatatum), goosegrass (Eleusine indica), guineagrass (Panicum maximum), itchgrass (Rottboellia exaltata), Johnson grass (Sorghum halepense), large crabgrass (Digitaria sanguinalis), pitted morningglory (Ipomoea lacunosa), purple nutsedge (Cyperus rotundus), sandbur (Cenchrus echinatus), sourgrass (Trichachne insularis), Spanishneedles (Bidens bipinnata), surinam grass (Brachiaria decumbens) and tall mallow (Malva sylvestris) were planted into greenhouse pots of flats containing greenhouse planting medium. Plant species were grown in separate pots or individual compartments. Preemergence applications were made within one day of planting the seed or plant part.
(§3) Test chemicals were formulated in a non-phytotoxic solvent mixture which included a surfactant and applied preemergence to the surface of the pot containing seeds in a sandy loam soil. Untreated control pots and treated pots were placed in the greenhouse for growth and visually evaluated for injury 14 to 21 days after herbicide application. Plant response ratings, summarized in Table C, are based on a 0 to 100 scale where 0 is no injury and 100 is complete control. A dash (−) response means no test result.

[3] = system: Johnson grass; assay: Test D Johnson grass; assay type: in vivo, Sorghum halepense; settings: Preemergence, 0 to 100 scale
Outline: as §1

[4] = system: large crabgrass; assay: Test D large crabgrass; assay type: in vivo, Digitaria sanguinalis; settings: Preemergence, 0 to 100 scale
Text: as §2, §3

[5] = system: pitted morningglory; assay: Test D pitted morningglory; assay type: in vivo, Ipomoea lacunosa; settings: Preemergence, 0 to 100 scale
Outline: as §1

[6] = system: Alexandergrass; assay: Test D Alexandergrass; assay type: in vivo, Brachiaria plantaginea; settings: Preemergence, 0 to 100 scale
Outline: as §1

[7] = system: purple nutsedge; assay: Test D purple nutsedge; assay type: in vivo, Cyperus rotundus; settings: Preemergence, 0 to 100 scale
Text: as §2, §3

[8] = system: dallisgrass; assay: Test D dallisgrass; assay type: in vivo, Paspalum dilatatum; settings: Preemergence, 0 to 100 scale
Text: as §2, §3

[9] = system: tall mallow; assay: Test D tall mallow; assay type: in vivo, Malva sylvestris; settings: Preemergence, 0 to 100 scale
Outline: as §1

[10] = system: surinam grass; assay: Test D surinam grass; assay type: in vivo, Brachiaria decumbens; settings: Preemergence, 0 to 100 scale
Outline: as §1

[11] = system: bermuda-grass; assay: Test D bermudagrass; assay type: in vivo, Cynodon dactylon; settings: Preemergence, 0 to 100 scale
Outline: as §1

[12] = Rate 64 g/ha, Preemergence; 0 to 100 scale, 0 no injury, 100 complete control
[13] = Rate 16 g/ha, 0 no injury, 100 complete control
[14] = Rate 32 g/ha, 0 no injury, 100 complete control
[15] = Rate 64 g/ha, 0 no injury, 100 complete control
[16] = Rate 125 g/ha, 0 no injury, 100 complete control

For `CCn1c(=O)on(C(=O)N(c2ccc(F)cc2)C(C)C)c1=O` [Compound 107], the “Plant response rating, C. purslane” value ([1]; Rate 16 g/ha; Preemergence; 0 to 100 scale, 0 no injury, 100 complete control) was 0, the “Plant response rating, C. purslane” value ([1]; Rate 32 g/ha; Preemergence; 0 to 100 scale, 0 no injury, 100 complete control) was 0 and the “Plant response rating, C. purslane” value [1, 12] was 0. For the same compound, the “Plant response rating, C. purslane” value ([1]; Rate 125 g/ha, Preemergence; 0 to 100 scale, 0 no injury, 100 complete control) was 0, the “Plant response rating, C. purslane” value ([1]; Rate 250 g/ha; Preemergence; 0 to 100 scale) was 0 and the “Plant response rating, C. purslane” value ([1]; Rate 500 g/ha, Preemergence; 0 to 100 scale) was 100. The “Plant response rating, C. purslane” value ([1]; Rate 500 g/ha; Preemergence; 0 to 100 scale) was 0, the “Plant response rating, C. ragweed” value [2, 13] was 0 and the “Plant response rating, C. ragweed” value [2, 14] was 0. For the same compound, the “Plant response rating, C. ragweed” value [2, 15] was 0, the “Plant response rating, C. ragweed” value [2, 16] was 85 and the “Plant response rating, C. ragweed” value ([2]; Rate 250 g/ha) was 100. The “Plant response rating, C. ragweed” value ([2]; Rate 500 g/ha) was 100, the “Plant response rating Johnsongrass” value [3, 13] was 20 and the “Plant response rating Johnsongrass” value [3, 14] was 85. The “Plant response rating Johnsongrass” value [3, 15] was 90, the “Plant response rating Johnsongrass” value [3, 16] was 90 and the “Plant response rating Johnsongrass” value ([3]; Rate 250 g/ha) was 98. The “Plant response rating Johnsongrass” value ([3]; Rate 500 g/ha) was 100, the “Plant response rating Large crabgrass” value [4, 13] was 85 and the “Plant response rating Large crabgrass” value [4, 14] was 98. The “Plant response rating Large crabgrass” value [4, 15] was 100, the “Plant response rating Large crabgrass” value [4, 16] was 100 and the “Plant response rating Large crabgrass” value ([4]; Rate 250 g/ha) was 100. The “Plant response rating Large crabgrass” value ([4]; Rate 500 g/ha) was 100, the “Plant response rating, P. morninglory” value [5, 13] was 0 and the “Plant response rating, P. morninglory” value [5, 14] was 0. For the same compound, the “Plant response rating, P. morninglory” value [5, 15] was 30, the “Plant response rating, P. morninglory” value [5, 16] was 30 and the “Plant response rating, P. morninglory” value ([5]; Rate 250 g/ha) was 75. The “Plant response rating, P. morninglory” value ([5]; Rate 500 g/ha) was 100, the “Plant response rating, Alexandergrass” value [6, 13] was 0 and the “Plant response rating, Alexandergrass” value [6, 14] was 90. For the same compound, the “Plant response rating, Alexandergrass” value [6, 15] was 100, the “Plant response rating, Alexandergrass” value [6, 16] was 100 and the “Plant response rating, Alexandergrass” value ([6]; Rate 250 g/ha) was 100. The “Plant response rating, Alexandergrass” value ([6]; Rate 500 g/ha) was 100, the “Plant response rating, Purple nutsedge” value [7, 13] was 0 and the “Plant response rating, Purple nutsedge” value [7, 14] was 0. The “Purple nutsedge plant response rating” value [7, 15] was 20, the “Purple nutsedge plant response rating” value [7, 16] was 65 and the “Plant response rating, Purple nutsedge” value ([7]; Rate 250 g/ha) was 85. The “Plant response rating, Purple nutsedge” value ([7]; Rate 500 g/ha) was 85, the “Plant response rating, Dallisgrass” value [8, 13] was 30 and the “Plant response rating, Dallisgrass” value [8, 14] was 85. For the same compound, the “Plant response rating, Dallisgrass” value [8, 15] was 100, the “Plant response rating, Dallisgrass” value [8, 16] was 100 and the “Plant response rating, Dallisgrass” value ([8]; Rate 250 g/ha) was 100. The “Plant response rating, Dallisgrass” value ([8]; Rate 500 g/ha) was 100, the “Plant response rating, Tall Mallow” value [9, 13] was 0 and the “Plant response rating, Tall Mallow” value [9, 14] was 0. For the same compound, the “Tall Mallow plant response rating” value [9, 15] was 0, the “Tall Mallow plant response rating” value [9, 16] was 90 and the “Plant response rating, Tall Mallow” value ([9]; Rate 250 g/ha) was 98. The “Plant response rating, Tall Mallow” value ([9]; Rate 500 g/ha) was 100, the “Plant response rating, Surinam grass” value [10, 13] was 30 and the “Plant response rating, Surinam grass” value [10, 14] was 75. The “Surinam grass plant response rating” value [10, 15] was 100, the “Surinam grass plant response rating” value [10, 16] was 100 and the “Plant response rating, Surinam grass” value ([10]; Rate 250 g/ha) was 100. The “Plant response rating, Surinam grass” value ([10]; Rate 500 g/ha) was 100, the “Plant response rating, Bermudagrass” value [11, 13] was 85 and the “Plant response rating, Bermudagrass” value [11, 14] was 100. For the same compound, the “Plant response rating, Bermudagrass” value [11, 15] was 100, the “Plant response rating, Bermudagrass” value [11, 16] was 100 and the “Plant response rating, Bermudagrass” value ([11]; Rate 250 g/ha) was 100. For the same compound, the “Plant response rating, Bermudagrass” value ([11]; Rate 500 g/ha) was 100.
For `C=C(C)Cn1c(=O)on(C(=O)N(c2ccc(F)cc2)C(C)C)c1=O` [Compound 139], the “Plant response rating, C. purslane” value [1, 12] was 0, the “Plant response rating, C. ragweed” value [2, 15] was 0 and the “Plant response rating Johnsongrass” value [3, 15] was 10. The “Plant response rating Large crabgrass” value [4, 15] was 90, the “Plant response rating, P. morninglory” value [5, 15] was 30 and the “Plant response rating, Alexandergrass” value [6, 15] was 60. The “Purple nutsedge plant response rating” value [7, 15] was 0, the “Plant response rating, Dallisgrass” value [8, 15] was 90 and the “Tall Mallow plant response rating” value [9, 15] was 20. The “Surinam grass plant response rating” value [10, 15] was 20 and the “Plant response rating, Bermudagrass” value [11, 15] was 98.
